These results are taken from US5733913A, “6-Aryl pyrido[2,3-d] pyrimidines and naphthyridines for inhibiting protein tyrosine kinase mediated cellular proliferation” (priority 1995, dated 1998).

Usually IC50 stands for the concentration needed to halve the response being measured. By inhibition is commonly meant the drop in the measured response relative to a control, in per cent.

Common to all, as to type: biochemical
In one assay the test system is V-src kinase. Nature of the assay: V-src kinase assay. The following applies: at 50 μM. The protocol: (§1) V-src and C-src Kinase Assays
(§2) V-src or C-src kinase is purified from baculovirus infected insect cell lysates using an antipeptide monoclonal antibody directed against the N-terminal 2-17 amino acids. The antibody, covalently linked to 0.65-μm latex beads, is added to a suspension of insect cell lysis buffer comprised of 150 mM NaCl, 50 mM Tris pH 7.5, 1 mM DTT, 1% NP-40, 2 mM EGTA, 1 mM sodium vanadate, 1 mM PMSF, 1 μg/mL each of leupeptin, pepstatin, and aprotinin. Insect cell lysate containing either the c-src or v-src protein is incubated with these beads for 3-4 hours at 4° C. with rotation. At the end of the lysate incubation, the beads are rinsed 3 times in lysis buffer, resuspended in lysis buffer containing 10% glycerol, and frozen. These latex beads are thawed, rinsed three times in assay buffer which is comprised of 40 mM tris pH 7.5, 5 mM MgCl2, and suspended in the same buffer. In a Millipore 96-well plate with a 0.65 μm polyvinylidine membrane bottom are added the reaction components: 10-μL v-src or c-src beads, 10 μL of 2.5 mg/mL poly GluTyr substrate, 5 μM ATP containing 0.2 μCi labeled ^32 P-ATP, 5μL DMSO containing inhibitors or as a solvent control, and buffer to make the final volume 125 μL. The reaction is started at room temperature by addition of the ATP and quenched 10 minutes later by the addition of 125 μL of 30% TCA, 0.1M sodium pyrophosphate for 5 minutes on ice. The plate is then filtered and the wells washed with two 250-μL aliquots of 15% TCA, 0.1M pyrophosphate. The filters are punched, counted in a liquid scintillation counter, and the data examined for inhibitory activity in comparison to a known inhibitor such as erbstatin. The method is described more fully in J. Med. Chem., 37:598-609 (1994).

The target in assay [1] is T1, human FGF-1 (flg) receptor tyrosine kinase (Homo sapiens, UniProt P11362).
T1 construct: a fragment of DNA that codes for the intracellular tyrosine kinase domain; made in house; host or cells: Sf9 insect cells (baculovirus), cell lysate
The assay is described as follows: FGF receptor tyrosine kinase assay. The following applies: for IC50: read-out: Inhibition of Protein Tyrosine Kinases, FGF, IC50. The source says:
(§3) PDGF and FGF Receptor Tyrosine Kinase Assays
(§4) Full length cDNAs for the mouse PDGF-β and human FGF-1 (flg) receptor tyrosine kinases were obtained from J. Escobedo and prepared as described in J. Biol. Chem., 262:1482-1487 (1991), and PCR primers were designed to amplify a fragment of DNA that codes for the intracellular tyrosine kinase domain. The fragment was melded into a baculovirus vector, cotransfected with AcMNPV DNA, and the recombinant virus isolated. SF9 insect cells were infected with the virus to overexpress the protein, and the cell lysate was used for the assay. […] Briefly, to each well was added 82.5 μL of incubation buffer containing 25 mM Hepes (pH 7.0), 150 mM NaCl, 0.1% Triton X-100, 0.2 mM PMSF, 0.2 mM Na3 VO4, 10 mM MnCl2, and 750 μg/mL of Poly (4:1) glutamate-tyrosine followed by 2.5 μL of inhibitor and 5 μL of enzyme lysate (7.5 μg/μL FGF-TK or 6.0 μg/μL PDGF-TK) to initiate the reaction. Following a 10 minute incubation at 25° C., 10 μL of γ^32 P-ATP (0.4 μCi plus 50 μM ATP) was added to each well and samples were incubated for an additional 10 minutes at 25° C. The reaction was terminated by the addition of 100 μL of 30% trichloroacetic acid (TCA) containing 20 mM sodium pyrophosphate and precipitation of material onto glass fiber filter mats (Wallac). […] Nonspecific activity was defined as radioactivity retained on the filters following incubation of samples with buffer alone (no enzyme). Specific enzymatic activity was defined as total activity (enzyme plus buffer) minus nonspecific activity.

A further assay has as its target T2, C-src kinase (Homo sapiens, UniProt P12931).
T2 construct: made in house; host or cells: baculovirus-infected insect cells
The assay is described as follows: C-src kinase assay. To be noted: for IC50: read-out: Inhibition of Protein Tyrosine Kinases, C-src, IC50; for inhibition at 50 µM: read-out: Inhibition of Protein Tyrosine Kinases, C-src, % Inhibition. The method, then:
as §1
as §2, with “Insect cell lysate containing either the c-src or v-src protein is incubated with these beads for 3-4 hours at 4° C. with rotation.” left out

Assay [2] addresses T3, mouse PDGF-β receptor tyrosine kinase (Mus musculus, UniProt P05622).
T3 construct: a fragment of DNA that codes for the intracellular tyrosine kinase domain; made in house; host or cells: Sf9 insect cells (baculovirus), cell lysate
Nature of the assay: PDGF receptor tyrosine kinase assay. The following applies: for IC50: read-out: Inhibition of Protein Tyrosine Kinases, PDGF, IC50; for inhibition at 50 µM: read-out: Inhibition of Protein Tyrosine Kinases, PDGF, % Inhibition.
Text: as §3, §4

T1 sequence (P11362 478-767 limits assumed): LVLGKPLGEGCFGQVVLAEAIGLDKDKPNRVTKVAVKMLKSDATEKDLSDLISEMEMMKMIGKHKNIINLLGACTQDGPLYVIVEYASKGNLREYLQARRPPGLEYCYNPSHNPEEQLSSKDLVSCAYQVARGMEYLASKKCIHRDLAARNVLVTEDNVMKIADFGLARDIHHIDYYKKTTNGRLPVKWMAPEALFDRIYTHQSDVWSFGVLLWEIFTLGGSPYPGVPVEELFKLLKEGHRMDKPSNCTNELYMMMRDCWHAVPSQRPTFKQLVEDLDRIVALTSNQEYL
T3 sequence (P05622 599-961 limits assumed): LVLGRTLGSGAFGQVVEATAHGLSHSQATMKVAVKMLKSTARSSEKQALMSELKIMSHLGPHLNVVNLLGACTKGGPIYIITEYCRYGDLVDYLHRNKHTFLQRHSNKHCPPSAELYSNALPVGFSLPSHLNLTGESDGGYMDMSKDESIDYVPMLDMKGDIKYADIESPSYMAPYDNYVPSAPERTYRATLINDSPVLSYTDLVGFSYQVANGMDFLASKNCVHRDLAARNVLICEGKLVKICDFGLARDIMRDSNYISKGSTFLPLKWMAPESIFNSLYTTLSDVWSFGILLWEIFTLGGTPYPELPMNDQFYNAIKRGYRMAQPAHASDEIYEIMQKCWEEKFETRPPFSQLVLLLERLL
T2 sequence (P12931 whole entry): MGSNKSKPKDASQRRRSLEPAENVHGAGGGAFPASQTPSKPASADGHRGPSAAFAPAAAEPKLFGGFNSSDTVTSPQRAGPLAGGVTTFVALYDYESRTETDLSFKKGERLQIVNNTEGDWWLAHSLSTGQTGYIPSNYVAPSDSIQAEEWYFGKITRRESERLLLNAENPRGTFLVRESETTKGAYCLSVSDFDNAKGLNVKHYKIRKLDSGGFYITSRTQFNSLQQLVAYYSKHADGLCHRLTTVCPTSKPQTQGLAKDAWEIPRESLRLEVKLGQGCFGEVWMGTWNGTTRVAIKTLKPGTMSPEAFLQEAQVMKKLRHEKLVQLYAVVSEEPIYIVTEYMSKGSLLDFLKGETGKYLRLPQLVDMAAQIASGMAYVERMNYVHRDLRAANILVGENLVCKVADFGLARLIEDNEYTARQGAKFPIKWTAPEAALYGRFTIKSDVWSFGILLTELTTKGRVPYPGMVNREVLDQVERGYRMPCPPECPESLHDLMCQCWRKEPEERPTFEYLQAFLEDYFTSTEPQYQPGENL

For the compound `CCN(CC)CCCNc1ncc2cc(-c3c(Cl)cccc3Cl)c(N)nc2n1` [Example 20, 7-Amino-6-(2,6-dichlorophenyl)-2-(3-diethylamino-propylamino)-pyrido[2,3-d]pyrimidine], in the assay with V-src kinase, the “Inhibition of Protein Tyrosine Kinases, V-src, % Inhibition” value (“Inhibition … % Inhibition” for short) is 51.7%. Also, the IC50 came out at 2380 nM in assay [1], 748 nM on C-src kinase and 46100 nM in assay [2].

Turning to `Nc1ncc2cc(-c3c(Cl)cccc3Cl)c(N)nc2n1` [Example 1, 2,7-Diamino-6-(2,6-dichlorophenyl)-pyrido[2,3-d]pyrimidine], in the assay on V-src kinase, the “Inhibition … % Inhibition” value is listed as -2.4%. Moreover, the IC50 in assay [1] stood at 2990 nM.

For the compound `Nc1ncc2cc(-c3cccc(Cl)c3Cl)c(N)nc2n1` [Example 83, 6-(2,3-Dichlorophenyl)-pyrido[2,3-d]pyrimidine-2,7-diamine], in the assay on V-src kinase, the “Inhibition … % Inhibition” value is -9.8%. The IC50 in assay [1] was found to be 1980 nM; in assay [2], 42500 nM. In addition, at C-src kinase, the inhibition at 50 µM is 53.6%.

`CNc1nc2nc(N)ncc2cc1-c1ccc(OC)cc1` [Example 13, 6-(4-Methoxyphenyl)-N^7-methyl-pyrido[2,3-d]pyrimidine-2,7-diamine]: the “Inhibition … % Inhibition” value with V-src kinase was determined as 21.2%. Also, the IC50 in assay [1] was found to be 30300 nM. Moreover, the inhibition at 50 µM worked out at 15.9% on C-src kinase and 18.2% in assay [2].

Consider `Nc1ncc2cc(-c3ccccc3)c(N)nc2n1` [Example 81, 6-Phenyl-pyrido[2,3-d]pyrimidine-2,7-diamine], for which the “Inhibition … % Inhibition” value in the assay on V-src kinase is -20.3%. Also, the inhibition at 50 µM on C-src kinase is 67.5%.

On to `CN1CCN(CCCNc2ncc3cc(-c4c(Cl)cccc4Cl)c(NC(=O)Nc4ccc(Br)cc4)nc3n2)CC1` [Example 44, 1-(4-Bromo-phenyl)-3-{6-(2,6-dichlorophenyl)-2-[3-(4-methyl-piperazin-1-yl)-propylamino]-pyrido[2,3-d]pyrimidin-7-yl}-urea], for which the figures for the IC50 (in assay [1]; at C-src kinase; in assay [2]) were 196 nM, 23 nM and 1550 nM, respectively.

On to `CN1CCN(CCCNc2ncc3cc(-c4c(Cl)cccc4Cl)c(NC(=O)NC45CC6CC(CC(C6)C4)C5)nc3n2)CC1` [Example 117, 1-Adamantan-1-yl-3-{6-(2,6-dichlorophenyl)-2-[3-(4-methyl-piperazin-1-yl)-propylamino]-pyrido[2,3-d]pyrimidin-7-yl}-urea], for which the results for the IC50 in assay [1] and in assay [2] were 135 nM and 2790 nM, respectively. At C-src kinase, the inhibition at 50 µM stood at 100%.

On to `CCNC(=O)Nc1nc2nc(NCCCN3CCN(C)CC3)ncc2cc1-c1c(Cl)cccc1Cl` [Example 49, 1-{6-(2,6-Dichlorophenyl)-2-[3-(4-methyl-piperazin-1-yl)-propylamino]-pyrido[2,3-d]pyrimidin-7-yl}-3-ethyl-urea], for which the IC50 was 53.5 nM in assay [1], 24 nM on C-src kinase and 420 nM in assay [2].

As to `CCN(CCO)CCCNc1ncc2cc(-c3c(Cl)cccc3Cl)c(N)nc2n1` [Example 70, 2-({3-[7-Amino-6-(2,6-dichlorophenyl)-pyrido[2,3-d]pyrimidin-2-ylamino]-propyl}-ethyl-amino)-ethanol], the IC50 was 2590 nM in assay [1], 929 nM at C-src kinase and 31400 nM in assay [2].

For the compound `CC(C)(C)NC(=O)Nc1nc2nc(N)ncc2cc1-c1ccccc1` [Example 82, 1-(2-Amino-6-phenyl-pyrido[2,3-d]pyrimidin-7-yl)-3-tert-butyl-urea], the IC50 in assay [1] was found to be 3710 nM; in assay [2] it was 4670 nM. Besides, the inhibition at 50 µM at C-src kinase came to 77.6%.

For the compound `CC(C)(C)NC(=O)Nc1nc2nc(N)ncc2cc1-c1c(Cl)ccc(Cl)c1Cl` [Example 86, 1-[2-Amino-6-(2,3,6-trichloro-phenyl)-pyrido[2,3-d]pyrimidin-7-yl]-3-tert-butyl-urea], the IC50 in assay [1] is 114 nM; on C-src kinase, 1410 nM; in assay [2], 2960 nM.

On to `COc1cccc(OC)c1-c1cc2cnc(N)nc2nc1N` [Example 64, 6-(2,6-Dimethoxy-phenyl)-pyrido[2,3-d]pyrimidine-2,7-diamine], for which the inhibition at 50 µM was found to be 23.8% in assay [1] (at 50 μM, read-out: Inhibition of Protein Tyrosine Kinases, FGF, % Inhibition); 0% at C-src kinase; 13% in assay [2].

As for `Cc1cc(C)cc(-c2cc3cnc(N)nc3nc2NC(=O)NC(C)(C)C)c1` [Example 95, 1-[2-Amino-6-(3,5-dimethyl-phenyl)-pyrido[2,3-d]pyrimidin-7-yl]-3-tert-butyl-urea], the results for the IC50 in assay [1] and in assay [2] were 605 nM and 41600 nM, respectively. Moreover, on C-src kinase, the inhibition at 50 µM turned out to be 0%.

As for `COc1ccccc1NC(=O)Nc1nc2nc(NCCCN3CCN(C)CC3)ncc2cc1-c1c(Cl)cccc1Cl` [Example 43, 1-{6-(2,6-Dichlorophenyl)-2-[3-(4-methyl-piperazin-1-yl)-propylamino]-pyrido[2,3-d]pyrimidin-7-yl}-3-(2-methoxy-phenyl)-urea], the IC50 in assay [1] was determined as 91 nM; at C-src kinase, 11 nM; in assay [2], 405 nM.

Take `CCN(CC)CCCNc1ncc2cc(-c3c(Cl)cccc3Cl)c(N=CN(C)C)nc2n1` [Example 78, N'-[6-(2,6-Dichlorophenyl)-2-{3-(diethylamino)propyl-amino}pyrido[2,3-d]pyrimidin-7-yl]-N,N-dimethylformamidine]: the values for the IC50 (in assay [1]; on C-src kinase; in assay [2]) were 4010 nM, 3990 nM and 32900 nM, respectively.

In the case of `Nc1ncc2cc(-c3c(Cl)ccc(Cl)c3Cl)c(N)nc2n1` [Example 85, 6-(2,3,6-Trichloro-phenyl)-pyrido[2,3-d]pyrimidine-2,7-diamine], the IC50 in assay [1] turned out to be 129 nM; at C-src kinase it was 4460 nM; in assay [2], 7630 nM.

Regarding `COc1ccccc1-c1cc2cnc(N)nc2nc1NC(=O)NC(C)(C)C` [Example 101, 1-[2-Amino-6-(2-methoxy-phenyl)-pyrido[2,3-d]pyrimidin-7-yl]-3-tert-butyl-urea], the IC50 in assay [1] was 11200 nM; at C-src kinase, 19300 nM; in assay [2], 4480 nM.
